Experimental data from patent US6624140B1, “Synthetic peptides with antimicrobial and endotoxin neutralizing properties for management of the sepsis syndrome” (Academisch Ziekenhuis Bij de Universiteit van Amsterdam …, priority 1997, dated 2003).
No end group written: not given here.

Legend:
[1] = test system: Gram-negative and Gram-positive bacteria; assay: Anti-microbial activity of analogues and further peptides (bacterium not specified); type: cell-based; conditions: even at the highest concentration tested (20 μg/ml)
Text: A peptide encompassing a selected LPS-binding domain from a well characterized human antiendotoxin protein, known as bactericidal/permeability increasing protein (BPI), from amino acids 85 to 102, denoted as BPI(85-102), was included for a direct comparison of the efficacy of the endotoxin-binding domain of a naturally occurring protein and the synthetic peptides of the invention. The amino acid sequence of the BPI(85-102) peptide is:
The BPI(85-102) reference peptide was synthesized as previously described for peptides of the invention and provided with a C-terminal Cys residue for the purpose of biotinylation as previously described. […] Incubation of various concentrations of the synthetic peptides according to the invention for a limited time period on the survival of both types of bacteria again illustrated their potent anti-microbial activity as opposed to that of the BPI(85-102) peptide (FIG. 1) with the sequence corresponding to that of the potential LPS binding domain of the native BPI protein. This is indicative of a broad specificity of the synthetic peptides, in keeping with the general bactericidal properties of this class of linear amphipathic α-helical peptides. […]

[2] = Turbidity assay of endotoxin complexation; type: binding, Escherichia coli; conditions: 2-fold molar excess of synthetic peptide
Procedure: FIG. 2. Endotoxin complexation activity of the synthetic peptides. Peptides at concentrations of 100 to 600 μg/ml were incubated with E. coli D31m4 Re or J5 LPS at 100 μg/ml in a total volume of 100 μl pyrogen-free phosphate buffered saline (PBS) in plastic ELISA microtiter plates for 30 min at 23° C. The turbidity produced by the insoluble peptide-endotoxin complexes was measured at 340 nm. The values represent the mean of three determinations and were corrected for controls containing the same concentrations of endotoxin or peptide.
(§1) Double-immunodiffusion of the peptides of the invention against ‘rough’ R-type E. coli D31m4 Re-LPS (List Biological Laboratories Inc., Calif.) or the structurally more complex ‘smooth’ S-type E. coli 0111:B4 LPS (Sigma Chemical Co., Rockford, Ill.) was performed in 0.8% (w/v) agarose containing 50 mM Tris and 0.1% (w/v) Triton X100, pH 7.5. for 16 h at 20° C. PmB and BPI(85-102) were included as control compounds for comparative purposes. The microprecipitates formed were visualized by Coommassie brilliant blue staining. […] Since the amount of precipitate formed is a function of valency, the peptides of the invention appear to be capable of a high degree of intermolecular binding of LPS molecules via the Lipid A moieties. […] A turbidity assay was employed for a direct comparison of the endotoxin-binding activity or avidity of selected synthetic peptides according to the invention using the ‘rough’ serotypes E. coli Re or Rc (J5) LPS. PmB and BPI(85-102) were included as control compounds for comparative purposes. The degree of precipitation of endotoxin by the synthetic peptides according to the invention was determined by measurement of the optical density of insoluble complexes formed at 340 nm (FIG. 2). In most instances optimal complexation of Re or J5 LPS by the synthetic peptides of the invention was evident at a molar ratio of peptide to endotoxin of 1 to 2. The control BPI(85-102) peptide was required at a 4-fold molar excess for approximately the same degree of complexation. […] There was no significant difference between complexation of Re or the structurally more complex J5-LPS by the synthetic peptides. […] The Lipid A binding affinity of the synthetic peptides were directly compared in a solid-state endotoxin-binding assay. Binding characteristics of biotinylated derivatives of the synthetic peptides BP1, BP2, BP2.1 and the control peptide BPI(85-102) were determined on ELISA microtiter plates coated with E. coli D31m4 Lipid A. Specific binding of the biotinylated peptides to the immobilized Lipid A was determined by development with Streptavidin-HRP and 3, 5, 3′, 5′ tetra-methylbenzidine (TMB) substrate and expressed as the corrected optical density at 450 nm. […] The affinity of the novel synthetic peptide BP2 for endotoxin of increasing complexity as well as the effect of plasma on binding was examined with the use of the ELISA microplate assay.

[3] = Solid-state Lipid A binding ELISA microplate assay; parameters: species or system Escherichia coli; conditions: biotinylated derivatives; immobilized E. coli D31m4 Lipid A; Scatchard plot
Procedure: FIG. 3. Lipid A binding affinity of the synthetic peptides. Plastic ELISA microtiter plates were coated with purified E. coli D31m4 Lipid A at 1 μg/ml. Incubations were for 20 min with the indicated concentrations of synthetic peptides BP1, BP2 or BP2.1 or control peptide BPI(85-102) followed by streptavidin-HRP at a dilution of 1 in 20 000. Washing steps to remove excess peptide or streptavidin were with 50 mM Tris buffer pH 7.4 containing 0.05% (v/v) Tween 20. Development was with TMB substrate for 10 min. The optical density (O.D) at 450 nm was measured with a microplate reader and values were corrected for non-specific binding which was generally between 5 and 10%. The plotted values are the corrected means of triplicate experiments.
as §1

[4] = test system: TNF-α production; assay: TNF-α in whole blood ex vivo after pre-incubation of LPS with peptide; type: cell-based, human; conditions: 1 to 10 μg/ml pre-incubated with 1 ng/ml LPS, even at lowest concentration 1 μg/ml, 4 h at 37° C.
Procedure: FIG. 11. Effect of pre-incubation of E. coli 0111:B4 LPS with synthetic peptides or Polymyxin B on TNF-α levels in whole blood ex vivo. The indicated amounts of synthetic, control peptides or PmB were pre-incubated with E. coli 0111:B4 LPS at 1 ng/ml for […] at 23° C., added to whole blood containing heparin at 2 I.U/ml and the TNF-α concentrations determined after incubation for 4 h at 37° C. Each value is the mean of triplicate experiments. Controls only contained LPS.
In addition, the LPS-neutralizing activity of selected synthetic peptides of the invention were compared in a more complex environment of whole blood ex vivo to determine the effect of physiological concentrations of blood components such as plasma proteins, blood cells etc. on the detoxification efficacy. In pre-incubation experiments, concentrations of synthetic peptides, control peptide or PmB from 1 to 10 μg/ml were pre-incubated with 1 ng/ml E. coli 0111:B4 LPS in pyrogen-free saline for 30 min at 23° C., added to venous blood containing heparin at 2 I.U/ml as anti-coagulant and incubated for 4 h at 37° C. TNF-α concentrations were determined in appropriately diluted cell-free supernatants as described before.

[5] = test system: TNF-α production; assay: TNF-α in whole blood ex vivo, peptide added before LPS challenge; type: cell-based, human; conditions: 2.5 to 20 μg/ml added 10 min before 1 ng/ml LPS
Procedure: FIG. 12. Effect of pre-challenge addition of synthetic peptides on TNF-a levels induced by E. coli 0111:B4 LPS in whole blood ex vivo. The synthetic peptides BP2, BP2.1 or BP2.2 were added to whole blood containing heparin at 2 I.U/ml at the concentrations indicated and incubated for 10 min at 37° C. TNF-α concentrations were measured after incubation for 4 h at 37° C. subsequent to addition of E. coli 0111:B4 LPS at 1 ng/ml. The values represent the means of triplicate experiments. Controls only contained added LPS.
To determine whether addition of synthetic peptide to whole blood ex vivo prior to endotoxin challenge was effective in endotoxin neutralization assayed in terms of cytokine production, a synthetic peptide of the invention BP2, and the analogues BP2.1 or BP2.2 were added at concentrations of 2.5 to 20 μg/ml to whole blood and incubated for 10 min at 37° C. prior to the addition of 1 ng/ml E. coli 0111:B4 LPS. TNF-α concentrations were determined as previously described. […] The structurally related LPS-binding synthetic peptide analogues BP2.1 and BP2.2 were ineffective in endotoxin neutralization under these conditions.

[6] = Double-immunodiffusion against 0111:B4 LPS; type: binding, Escherichia coli; conditions: 0.8% agarose, 16 h at 20° C.; data not shown
Procedure: Double-immunodiffusion of the peptides of the invention against ‘rough’ R-type E. coli D31m4 Re-LPS (List Biological Laboratories Inc., Calif.) or the structurally more complex ‘smooth’ S-type E. coli 0111:B4 LPS (Sigma Chemical Co., Rockford, Ill.) was performed in 0.8% (w/v) agarose containing 50 mM Tris and 0.1% (w/v) Triton X100, pH 7.5. for 16 h at 20° C. PmB and BPI(85-102) were included as control compounds for comparative purposes. The microprecipitates formed were visualized by Coommassie brilliant blue staining. […] Since the amount of precipitate formed is a function of valency, the peptides of the invention appear to be capable of a high degree of intermolecular binding of LPS molecules via the Lipid A moieties. […] The degree of precipitation of endotoxin by the synthetic peptides according to the invention was determined by measurement of the optical density of insoluble complexes formed at 340 nm (FIG. 2). […] Binding characteristics of biotinylated derivatives of the synthetic peptides BP1, BP2, BP2.1 and the control peptide BPI(85-102) were determined on ELISA microtiter plates coated with E. coli D31m4 Lipid A. Specific binding of the biotinylated peptides to the immobilized Lipid A was determined by development with Streptavidin-HRP and 3, 5, 3′, 5′ tetra-methylbenzidine (TMB) substrate and expressed as the corrected optical density at 450 nm. […]

[7] = test system: IL-6 inducing ability of E. coli 0111:B4 LPS; assay: Effect of heparin on neutralization of IL-6 inducing ability of LPS; type: cell-based, human; conditions: heparin 0.1 to 100 I.U/ml
Procedure: FIG. 10. Effect of heparin on the efficacy of neutralization of the IL-6 inducing ability of E. coli 0111:B4 LPS by synthetic peptide or Polymyxin B in whole blood diluted 1 in 10. Synthetic peptides at concentrations of 2 μg/ml or PmB at 1 μg/ml was pre-incubated for 30 min at 37° C. with E. coli 0111:B4 LPS at 1 ng/ml in RPMI medium containing heparin in the concentration range of 0.1 to 100 I.U/ml. The residual cytokine inducing ability of the treated endotoxin was determined in diluted whole blood containing heparin at 2 IU/ml after incubation for 16 h at 37° C. Each value is the mean of triplicate determinations corrected for background. Controls contained only LPS.
The endotoxin neutralizing activities of the synthetic peptides of the invention were evaluated by investigating the effect on LPS-stimulated release of the pro-inflammatory cytokines, tumor necrosis factor alpha (TNF-α), interleukin-6 (IL-6) or interleukin-8 (IL-8) in a well characterized in vitro human whole blood bioassay system. In one series of experiments, dilutions of E. coli 0111:B4 LPS from 0.2 to 1 ng/ml were pre-incubated with synthetic peptides at 10 μg/ml concentrations in RPMI medium for 30 min at 20° C. and added to diluted whole blood. Cytokine concentrations in the supernatants were determined after further incubation for 16 h at 37° C. in the presence of 5% CO2 by specific and sensitive ELISA kits (CLB, Amsterdam, The Netherlands). In another series of experiments, the effects of synthetic peptides at concentrations of 2,5, 5 and 10 μg/ml on IL-6 induction by 1 ng/ml 0111:B4 LPS was examined after simultaneous addition of synthetic peptide and LPS to diluted whole blood. […] The control peptide BPI(85-102) was ineffective in reducing cytokine production under these conditions even at a 4-fold higher concentration. This probably reflects the differences in binding affinity for Lipid A of BP1 and BP2 compared with the BPI(85-102) peptide of approximately 5 and 10-fold, respectively. An additional factor which may have influenced binding of the control peptide to endotoxin is the presence of heparin employed as an anti-coagulant at a concentration of […] in the assay system. […] On this basis, it was predicted that the extent of reduction of endotoxin neutralizing efficacy would be a function of the differences in affinity between peptides for endotoxin and heparin. To verify this hypothesis, a series of experiments to determine the effect of increasing heparin concentrations on the efficacy of endotoxin neutralization during pre-incubation of synthetic peptide and E. coli 0111:B4 LPS were performed. FIG. 10 illustrates a dose-dependent suppression of endotoxin neutralizing activity of the synthetic peptides by heparin as exemplified by a reduction of IL-6 inhibition. […]

[8] = comparison value; cited from earlier work

Row | Substance | anti-microbial activity [1] | avidity order (degree of insoluble peptide-endotoxin complex formation) [2] | apparent binding affinity Ka for Lipid A [3] | inhibition of TNF-α production [4] | endotoxin neutralization (TNF-α production) [5] | precipitation of 0111 LPS [6] | influence of heparin on LPS-neutralizing activity [7] | Ka for Lipid A of known LPS binding molecule [8]
1 | GKLKKKWKAAKKFLKKCS [BP1.1, analogue similar to the formula] | no detectable anti-microbial activity |  |  |  |  |  |  | 
2 | GKWKLFKKAAKKFLKKCS [BP2.1, analogue similar to the formula] | no detectable anti-microbial activity | BP2.1>BP2.2>BP2>BP1>PmB >BPI(85-102) | 4e+07 M⁻¹ | no significant reduction | ineffective |  |  | 
3 | Polymyxin B [PmB, reference compound] |  | BP2.1>BP2.2>BP2>BP1>PmB >BPI(85-102) |  | almost complete inhibition |  | failed to precipitate | not influenced | 10^7 M^−1
4 | GKWKAFKKAAKKFAKKCS [BP2.2, analogue similar to the formula] |  | BP2.1>BP2.2>BP2>BP1>PmB >BPI(85-102) |  | no significant reduction | ineffective |  |  | 
